In patent publication US20210223230A1, “Neamine Compositions and Methods of Use Thereof” (President and Fellows of Harvard College, priority 2008, published 2021):
Where “and” joins values, the source holds several entries; their conditions need not be identical. Equal entries are not always repeated. Entries after “also recorded” stand apart in the source; their conditions may differ. Where two headings read alike, the source gives them in different places.

Legend:
[1] = test system: ANG; test: Nuclear translocation of ANG; assay type: cell-based; settings: inhibitors tested
[2] = test system: angiogenesis; settings: literature reports; cited from earlier work
[3] = test system: ANG; settings: literature reports; cited from earlier work
[4] = Adverse side effects in the treated mice of these studies; assay type: in vivo; settings: 30 mg/kg s.c. and 10 mg/kg i.p.
[5] = test system: PC-3 cell tumor tissues; test: IHC and ISH of PC-3 xenograft tumor tissues (ANG localization, 47S rRNA, PCNA, vWF); assay type: in vivo, athymic mice
Protocol: PBS- and neamine-treated tumor tissues were fixed in formalin, embedded in paraffin, and sections of […] were cut. (A) Localization of ANG was determined by IHC with anti-human ANG monoclonal antibody 26-2F. […] (C) Proliferating cells were stained with an anti-PCNA monoclonal antibody (mAb). PCNA positive and total numbers of cells were counted in 5 randomly selected areas at 200× magnification. (D) Blood vessels were stained with an anti-vWF antibody and counted in five most vascularized areas at 200× magnification.

[6] = test system: established PIN; test: Reversal of established PIN in 12-week-old MPAKT mice; assay type: in vivo; settings: for AKT expression and phosphorylation (IHC) / established PIN phenotype (H&E) / rRNA transcription / 47S rRNA level (ISH): daily i.p. 4 weeks from week 12; for apoptotic index: neomycin 10 mg/kg, N65828 4 mg/kg daily i.p. 4 weeks from week 12, control 0.95±0.11
[7] = test system: MDA-MB-435 human breast cancer cells; settings: cited from earlier work
[8] = Acute LD50 (subcutaneous) in mice; assay type: in vivo
[9] = cited from earlier work
[10] = test system: AKT-induced PIN; test: Prevention of AKT-induced PIN in 4-week-old MPAKT mice by small-molecule ANG inhibitors; settings: for 47S rRNA level / transcription (ISH) / AKT phosphorylation (IHC) / localization of ANG in prostate epithelial cells (IHC) / PIN formation (H&E): daily i.p. 4 weeks from week 4; for PIN formation (H&E): neamine, neomycin 10 mg/kg, N65828 4 mg/kg
[11] = test system: PC-3 human prostate cancer cells; test: Xenograft growth of PC-3 cell tumors in athymic mice; assay type: in vivo
Protocol: Male athymic mice were inoculated with 5×10^5 of PC-3 cells, and treated sub-cutaneously (s.c.) with PBS or neamine at a dose of 30 mg/kg body weight twice weekly for 8 weeks. Twelve mice were used per group. (A) Mice were examined by palpation for tumor appearance. (B) Tumor sizes were measured with a caliper and were expressed as length×width^2. At day 56, mice were sacrificed and tumor tissues were removed, photographed (C) and weighed (D).
Xenograft growth of PC-3 cell tumors. Five-week-old male athymic mice were inoculated s.c. with 100 μl of a mixture containing 5×10^5 PC-3 cells and 33 μl of Matrigel. The mice were treated s.c. with PBS or neamine (30 mg/kg) twice weekly for 8 weeks. Tumor sizes were measured every 3 days and recorded in mm^3 (Length×width^2). Mice were sacrificed at day 56 and the tumors were removed and the wet weights of the PC-3 tumors were recorded.

[12] = test system: HT-29 human colon adenocarcinoma; settings: cited from earlier work
[13] = mouse, in vivo, sc; cited from earlier work
[14] = in vivo; cited from earlier work
[15] = test system: PC-3 human prostate cancer cells; settings: nude mice, literature; cited from earlier work
[16] = target: ANG (Homo sapiens, UniProt P03950); settings: screen of 18,310 compounds; cited from earlier work
Sequence of ANG (Homo sapiens, UniProt P03950) (P03950 25-147): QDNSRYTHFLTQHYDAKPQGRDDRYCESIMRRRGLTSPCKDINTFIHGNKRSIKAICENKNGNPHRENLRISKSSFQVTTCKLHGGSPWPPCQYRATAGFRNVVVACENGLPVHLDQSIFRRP

[17] = test system: LNCaP cells; test: LNCaP cell proliferation in phenol red-free and steroid-free medium; assay type: cell-based, human; settings: ANG 0.1 μg/ml, DHT 10 nM
Protocol: (a) ANG stimulates LNCaP cell proliferation in the absence of androgens. Cells were culture in phenol red-free and charcoal/dextran-stripped (steroid-free) FBS for 2 day and stimulated with DHT (10 nM), ANG (0.1 μg/ml), or a mixture of the two for the time indicated. (b) Dose dependence. ANG was added to the cells and cultured for 4 days. (c) Anti-ANG mAb 26-2F inhibits DHT-induced cell proliferation. LNCaP cells were stimulated with 10 nM DHT in the presence of 26-2F or a control non-immune IgG for 3 days. (d) ANG over-expression promotes LNCaP proliferation in vitro. The vector control (pCI-Neo) and ANG transfectants (pCI-ANG) were cultured in phenol red-free and steroid-free medium for the time indicated. (e) Xenograft growth in castrated SCID mice. A mixture of 70 μl cell suspension (1×10^6 cells) and 30 μl Matrigel was injected s.c. per mouse (8 per group). The mice were castrated or sham-operated at the same time. Tumors were inspected and measured twice a week and the animals were sacrificed after 8 weeks of observation. (f) Endogenous ANG of LNCaP cells is essential for androgen-induced rRNA transcription. LNCaP cells were cultured in phenol red-free and steroid-free medium and incubated with DHT (10 nM), ANG (0.1 μg/ml), anti-ANG mAb 26-2F (60 μg/ml) or a mixture of DHT and 26-2F for 2 h. […]

CN[C@@H]1C[C@H]2O[C@@](C)([C@@H]1OC)n1c3ccccc3c3c4c(c5c6ccccc6n2c5c31)C(=O)NC4 [staurosporine]
effect on nuclear translocation of ANG [1]: no detectable effect

NC[C@@H]1O[C@H](O[C@H]2[C@@H](O)[C@H](O[C@@H]3[C@@H](O)[C@H](N)C[C@H](N)[C@H]3O[C@H]3O[C@H](CO)[C@@H](O)[C@H](O)[C@H]3N)O[C@@H]2CO)[C@H](N)[C@@H](O)[C@@H]1O [paromomycin]
anti-angiogenic activity [2]: not anti-angiogenic
effect on nuclear translocation of ANG [1]: does not detectably block
effect on nuclear translocation of ANG [3]: do not block

gentamicin
anti-angiogenic activity [2]: not anti-angiogenic
effect on nuclear translocation of ANG [3]: do not block

NC[C@H]1O[C@H](O[C@H]2[C@H](O)[C@@H](O)[C@H](N)C[C@@H]2N)[C@H](N)[C@@H](O)[C@@H]1O [neamine]
acute or chronic adverse side effects [4]: No acute or chronic adverse side effects; also recorded: not observed
decrease in cell proliferation ([5]; from PCNA positive cells vs control): 66%
decrease in tumor angiogenesis ([5]; from vessel density vs control): 72.8%
PCNA positive cells ([5]; neamine-treated PC-3 tumors, control 75.4±6): 25.6±6.4%
vessel density (vWF) ([5]; neamine-treated PC-3 tumors, control 82±3.2): 22.3±9.6 vessels per mm^2
localization of ANG in tumor cells (IHC, 26-2F) ([5]; neamine-treated PC-3 tumors, nuclear in untreated): most of the ANG is extracellular
47S rRNA level (ISH) ([5]; neamine-treated vs control tumor tissues): decreased significantly
anti-angiogenic activity [2]: equally effective
AKT expression and phosphorylation (IHC) [6]: not affected
established PIN phenotype (H&E) [6]: shrank established PIN
rRNA transcription / 47S rRNA level (ISH) [6]: inhibited
apoptotic index (TUNEL) ([6]; neamine 10 mg/kg daily i.p. 4 weeks from week 12, untreated 0.89±0.12): 2.15±0.17 per duct
mice with PIN regression ([6]; neamine 10 mg/kg daily i.p. 4 weeks, 12 mice): all 12
percentage of glands having PIN ([6]; neamine 10 mg/kg daily i.p. 4 weeks, before/control 95.2±3.2): 33% and 33.4±5.2%
xenograft growth [7]: inhibits
fold by which the 30 mg/kg dose is lower than the reported LD50 ([8]; 30 mg/kg s.c. vs LD50 1250 mg/kg): 42 fold
fold by which LD50 is higher than the highest scheduled dose ([8]; LD50 1,250 mg/kg vs 160 mg/kg): 7.8 fold
nephrotoxicity relative to that of neomycin ([9]; cell and organ culture): ~5%
ototoxicity relative to that of neomycin ([9]; cell and organ culture): ~6%
toxicity relative to neomycin (fold less toxic) ([9]; toxicity profile): close to that of streptomycin and kanamycin
47S rRNA level / transcription (ISH) [10]: decreased dramatically
AKT phosphorylation (IHC) [10]: did not differ from those of controls
localization of ANG in prostate epithelial cells (IHC) [10]: predominantly cytoplasmic and extracellular
PIN formation (H&E) [10]: inhibited PIN formation
vessel density (CD31) in ventral prostate ([10]; neamine 10 mg/kg daily 4 weeks, control 11.5±4.5): 4±0.5 per mm^2
Ki-67 positive cells ([10]; neamine 10 mg/kg daily 4 weeks, untreated PIN 61.1±9.3): 24.9±8.4%
percentage of PIN in the ventral prostate ([10]; neamine 10 mg/kg daily i.p. 4 weeks from week 4, control 95.1±4.3): 39.6±1.4%
effect on nuclear translocation of ANG [3]: comparable activity
inhibition of tumor growth ([11]; day 56, from tumor weight vs control): 72.5%
average tumor weight ([11]; day 56, neamine 30 mg/kg s.c. twice weekly, control 620±310): 170 ± 50 mg
tumor growth rate in animals that did develop tumors ([11]; neamine 30 mg/kg s.c. twice weekly): decreased significantly
animals in which tumor establishment was prevented ([11]; neamine 30 mg/kg s.c. twice weekly for 8 weeks, n=12): 50%
animals with palpable tumors at day 20 ([11]; neamine 30 mg/kg s.c. twice weekly, day 20): 5 of the 12
xenograft growth [12]: inhibits

[H]/N=C(/N)N[C@H]1[C@H](O)[C@@H](O)[C@H](O[C@@H]2O[C@@H](C)[C@](O)(C=O)[C@H]2O[C@@H]2O[C@@H](CO)[C@H](O)[C@@H](O)[C@@H]2NC)[C@@H](N/C(N)=N\[H])[C@@H]1O [streptomycin]
anti-angiogenic activity [2]: not anti-angiogenic
acute LD50 (subcutaneous) in mice [13]: 600 mg/kg
effect on nuclear translocation of ANG [3]: do not block

COc1ccc2c(c1)CC[C@@H]1[C@@H]2CC[C@]2(C)[C@@H](NCCCCCCN3C(=O)C=CC3=O)CC[C@@H]12 [U-73122]
effect on nuclear translocation of ANG [1]: only marginally block

NCC[C@H](O)C(=O)N[C@@H]1C[C@H](N)[C@@H](O[C@H]2O[C@H](CN)[C@@H](O)[C@H](O)[C@H]2O)[C@H](O)[C@H]1O[C@H]1O[C@H](CO)[C@@H](O)[C@H](N)[C@H]1O [amikacin]
anti-angiogenic activity [2]: not anti-angiogenic
effect on nuclear translocation of ANG [3]: do not block

neomycin
AKT expression and phosphorylation (IHC) [6]: not different from that of the control group
established PIN phenotype (H&E) [6]: reversed
rRNA transcription / 47S rRNA level (ISH) [6]: dramatically decreased
apoptotic index [6]: 1.95±0.19 caspase 3 positive cells per duct
luminal cell size ([6]; neomycin 4 weeks from week 12): restored cell size to normal
size of the ventral prostate of a representative mouse ([6]; neomycin 4 weeks from week 12, control 69.8): 44.3 mm^3
renal cortical levels relative to circulating levels in serum [14]: ≤ 20 times
47S rRNA level / transcription (ISH) [10]: inhibited
AKT phosphorylation (IHC) [10]: not altered
localization of ANG in prostate epithelial cells (IHC) [10]: extracellular
PIN formation (H&E) [10]: prevented PIN formation
effect on nuclear translocation of ANG [3]: blocks
xenograft growth of PC-3 cells [15]: inhibit

Nc1ccc(N=Nc2ccc(-c3ccc(O)cc3)cc2)c2ccc(S(=O)(=O)O)cc12 [N65828, 8-amino-5-(4′-hydroxybiphenyl-4-ylazo)naphthalene-2-sulfonate]
AKT expression and phosphorylation (IHC) [6]: not different from that of the control group
established PIN phenotype (H&E) [6]: reversed
rRNA transcription / 47S rRNA level (ISH) [6]: dramatically decreased
apoptotic index [6]: 2.02±0.21 caspase 3 positive cells per duct
47S rRNA level / transcription (ISH) [10]: inhibited
AKT phosphorylation (IHC) [10]: not altered
localization of ANG in prostate epithelial cells (IHC) [10]: remained strongly in the nucleus
PIN formation (H&E) [10]: prevented PIN formation
selectivity of enzymatic inhibition, ANG vs RNase A [16]: preferentially inhibited
xenograft growth of PC-3 cells [15]: inhibit

COc1ccc2c(c1)CC[C@@H]1[C@@H]2CC[C@]2(C)[C@@H](NCCCCCCN3C(=O)CCC3=O)CC[C@@H]12 [U-73343]
effect on nuclear translocation of ANG [1]: only marginally block

O=c1c(-c2ccc(O)cc2)coc2cc(O)cc(O)c12 [Genistein]
effect on nuclear translocation of ANG [1]: no detectable effect

C[C@]12CCC(=O)C[C@@H]1CC[C@@H]1[C@@H]2CC[C@]2(C)[C@@H](O)CC[C@@H]12 [DHT, dihydrotestosterone, reference compound]
LNCaP cell proliferation in the absence of androgens [17]: stimulates
